According to ChEMBL document CHEMBL3885881, “DrugMatrix”:

Species: Rattus norvegicus
Experiment: DrugMatrix - Regimen: Daily Repeat
Type: toxicity, organism-based, Sprague-Dawley
Parameters: regimen Daily Repeat, gender Male, age 6-8 weeks
Settings: in vivo, po, route oral GAVAGE, […]; for ABSOLUTE BASOPHIL / ABSOLUTE EOSINOPHIL / ABSOLUTE LYMPHOCYTE / ABSOLUTE SEGMENTED NEUTROPHIL / BASOPHIL / EOSINOPHIL / ERYTHROCYTE COUNT / HEMATOCRIT / HEMOGLOBIN / LYMPHOCYTE / MEAN CORPUSCULAR HEMOGLOBIN / MEAN CORPUSCULAR HEMOGLOBIN CONCENTRATION / MEAN CORPUSCULAR VOLUME / MONOCYTE / NUCLEATED RED BLOOD CELLS / PLATELET COUNT: tissue Blood; for ALANINE AMINOTRANSFERASE / ALBUMIN / ALKALINE PHOSPHATASE / ASPARTATE AMINOTRANSFERASE / BLOOD UREA NITROGEN / CARBON DIOXIDE / CHOLESTEROL / CREATINE PHOSPHOKINASE / CREATININE / GLUCOSE / LACTATE DEHYDROGENASE / POTASSIUM / SODIUM / TOTAL BILIRUBIN / TOTAL PROTEIN / URIC ACID: tissue Plasma
[1] = 0 mg/kg, 72 h, dose level Control, time 3 day
[2] = 0 mg/kg, 120 h, dose level Control, time 5 day
[3] = 20 mg/kg, 72 h, dose level Low, time 3 day
[4] = 20 mg/kg, 120 h, dose level Low, time 5 day
[5] = 2000 mg/kg, 72 h, dose level High, time 3 day
[6] = 2000 mg/kg, 120 h, dose level High, time 5 day

COc1ccccc1OCCNCC(O)COc1cccc2[nH]c3ccccc3c12 (configuration not stated) [CARVEDILOL]
ABSOLUTE BASOPHIL [1]: 0 CELLS/uL
ABSOLUTE EOSINOPHIL [1]: 0 CELLS/uL
ABSOLUTE LYMPHOCYTE [1]: 9244.83 CELLS/uL
ABSOLUTE SEGMENTED NEUTROPHIL [1]: 869.83 CELLS/uL
BASOPHIL [1]: 0%
EOSINOPHIL [1]: 0%
ERYTHROCYTE COUNT [1]: 5.43 x10E6/uL
HEMATOCRIT [1]: 34.03%
HEMOGLOBIN [1]: 13.27 G/DL
LYMPHOCYTE [1]: 90.33%
MEAN CORPUSCULAR HEMOGLOBIN [1]: 24.48 pg
MEAN CORPUSCULAR HEMOGLOBIN CONCENTRATION [1]: 39.03 G/DL
MEAN CORPUSCULAR VOLUME [1]: 62.75 fL
MONOCYTE [1]: 1%
NUCLEATED RED BLOOD CELLS [1]: 0.17 /100WBC
PLATELET COUNT [1]: 989 x10E3/uL
ALANINE AMINOTRANSFERASE [1]: 77 u/L
ALBUMIN [1]: 3.97 G/DL
ALKALINE PHOSPHATASE [1]: 464.83 u/L
ASPARTATE AMINOTRANSFERASE [1]: 89.83 u/L
BLOOD UREA NITROGEN [1]: 12.17 mg/dL
CARBON DIOXIDE [1]: 34.17 mmol/L
CHOLESTEROL [1]: 75.17 mg/dL
CREATINE PHOSPHOKINASE [1]: 367.67 u/L
CREATININE [1]: 0.16 mg/dL
GLUCOSE [1]: 142.67 mg/dL
LACTATE DEHYDROGENASE [1]: 139.33 u/L
POTASSIUM [1]: 6.38 MEQ/L
SODIUM [1]: 143.2 MEQ/L
TOTAL BILIRUBIN [1]: 0.2 mg/dL
TOTAL PROTEIN [1]: 5.77 G/DL
URIC ACID [1]: 0.7 mg/dL
ABSOLUTE BASOPHIL [2]: 0 CELLS/uL
ABSOLUTE EOSINOPHIL [2]: 0 CELLS/uL
ABSOLUTE LYMPHOCYTE [2]: 8295.33 CELLS/uL
ABSOLUTE SEGMENTED NEUTROPHIL [2]: 970 CELLS/uL
BASOPHIL [2]: 0%
EOSINOPHIL [2]: 0%
ERYTHROCYTE COUNT [2]: 5.74 x10E6/uL
HEMATOCRIT [2]: 36.22%
HEMOGLOBIN [2]: 13.85 G/DL
LYMPHOCYTE [2]: 88.67%
MEAN CORPUSCULAR HEMOGLOBIN [2]: 24.13 pg
MEAN CORPUSCULAR HEMOGLOBIN CONCENTRATION [2]: 38.25 G/DL
MEAN CORPUSCULAR VOLUME [2]: 63.08 fL
MONOCYTE [2]: 1%
NUCLEATED RED BLOOD CELLS [2]: 0.17 /100WBC
PLATELET COUNT [2]: 883.83 x10E3/uL
ALANINE AMINOTRANSFERASE [2]: 64.5 u/L
ALBUMIN [2]: 4.12 G/DL
ALKALINE PHOSPHATASE [2]: 425.67 u/L
ASPARTATE AMINOTRANSFERASE [2]: 88.5 u/L
BLOOD UREA NITROGEN [2]: 14.17 mg/dL
CARBON DIOXIDE [2]: 30.5 mmol/L
CHOLESTEROL [2]: 55.33 mg/dL
CREATINE PHOSPHOKINASE [2]: 287.17 u/L
CREATININE [2]: 0.2 mg/dL
GLUCOSE [2]: 162.83 mg/dL
LACTATE DEHYDROGENASE [2]: 111.33 u/L
POTASSIUM [2]: 5.13 MEQ/L
SODIUM [2]: 143.93 MEQ/L
TOTAL BILIRUBIN [2]: 0.17 mg/dL
TOTAL PROTEIN [2]: 5.9 G/DL
URIC ACID [2]: 0.77 mg/dL
ABSOLUTE BASOPHIL [3]: 0 CELLS/uL
ABSOLUTE EOSINOPHIL [3]: 67.33 CELLS/uL
ABSOLUTE LYMPHOCYTE [3]: 15458 CELLS/uL
ABSOLUTE SEGMENTED NEUTROPHIL [3]: 1844 CELLS/uL
BASOPHIL [3]: 0%
EOSINOPHIL [3]: 0.33%
ERYTHROCYTE COUNT [3]: 5.47 x10E6/uL
HEMATOCRIT [3]: 34.53%
HEMOGLOBIN [3]: 13.3 G/DL
LYMPHOCYTE [3]: 89.33%
MEAN CORPUSCULAR HEMOGLOBIN [3]: 24.47 pg
MEAN CORPUSCULAR HEMOGLOBIN CONCENTRATION [3]: 38.5 G/DL
MEAN CORPUSCULAR VOLUME [3]: 63.47 fL
MONOCYTE [3]: 0.33%
NUCLEATED RED BLOOD CELLS [3]: 0 /100WBC
PLATELET COUNT [3]: 907.33 x10E3/uL
ALANINE AMINOTRANSFERASE [3]: 76.33 u/L
ALBUMIN [3]: 4.1 G/DL
ALKALINE PHOSPHATASE [3]: 486 u/L
ASPARTATE AMINOTRANSFERASE [3]: 96.67 u/L
BLOOD UREA NITROGEN [3]: 11 mg/dL
CARBON DIOXIDE [3]: 32.67 mmol/L
CHOLESTEROL [3]: 75.67 mg/dL
CREATINE PHOSPHOKINASE [3]: 501.33 u/L
CREATININE [3]: 0.24 mg/dL
GLUCOSE [3]: 131 mg/dL
LACTATE DEHYDROGENASE [3]: 152.67 u/L
POTASSIUM [3]: 5.98 MEQ/L
SODIUM [3]: 145.6 MEQ/L
TOTAL BILIRUBIN [3]: 0.17 mg/dL
TOTAL PROTEIN [3]: 5.8 G/DL
URIC ACID [3]: 0.6 mg/dL
ABSOLUTE BASOPHIL [4]: 0 CELLS/uL
ABSOLUTE EOSINOPHIL [4]: 48 CELLS/uL
ABSOLUTE LYMPHOCYTE [4]: 6685 CELLS/uL
ABSOLUTE SEGMENTED NEUTROPHIL [4]: 615 CELLS/uL
BASOPHIL [4]: 0%
EOSINOPHIL [4]: 0.67%
ERYTHROCYTE COUNT [4]: 5.51 x10E6/uL
HEMATOCRIT [4]: 34.9%
HEMOGLOBIN [4]: 13.3 G/DL
LYMPHOCYTE [4]: 90.33%
MEAN CORPUSCULAR HEMOGLOBIN [4]: 24.17 pg
MEAN CORPUSCULAR HEMOGLOBIN CONCENTRATION [4]: 38.13 G/DL
MEAN CORPUSCULAR VOLUME [4]: 63.4 fL
MONOCYTE [4]: 0.67%
NUCLEATED RED BLOOD CELLS [4]: 0.33 /100WBC
PLATELET COUNT [4]: 1008 x10E3/uL
ALANINE AMINOTRANSFERASE [4]: 58.33 u/L
ALBUMIN [4]: 3.93 G/DL
ALKALINE PHOSPHATASE [4]: 439.33 u/L
ASPARTATE AMINOTRANSFERASE [4]: 81.67 u/L
BLOOD UREA NITROGEN [4]: 15 mg/dL
CARBON DIOXIDE [4]: 30.67 mmol/L
CHOLESTEROL [4]: 57 mg/dL
CREATINE PHOSPHOKINASE [4]: 167.67 u/L
CREATININE [4]: 0.13 mg/dL
GLUCOSE [4]: 153.67 mg/dL
LACTATE DEHYDROGENASE [4]: 137 u/L
POTASSIUM [4]: 5.49 MEQ/L
SODIUM [4]: 144.75 MEQ/L
TOTAL BILIRUBIN [4]: 0.23 mg/dL
TOTAL PROTEIN [4]: 5.63 G/DL
URIC ACID [4]: 0.5 mg/dL
ABSOLUTE BASOPHIL [5]: 0 CELLS/uL
ABSOLUTE EOSINOPHIL [5]: 24.67 CELLS/uL
ABSOLUTE LYMPHOCYTE [5]: 8554.33 CELLS/uL
ABSOLUTE SEGMENTED NEUTROPHIL [5]: 841.33 CELLS/uL
BASOPHIL [5]: 0%
EOSINOPHIL [5]: 0.33%
ERYTHROCYTE COUNT [5]: 5.87 x10E6/uL
HEMATOCRIT [5]: 36.37%
HEMOGLOBIN [5]: 13.9 G/DL
LYMPHOCYTE [5]: 88%
MEAN CORPUSCULAR HEMOGLOBIN [5]: 23.67 pg
MEAN CORPUSCULAR HEMOGLOBIN CONCENTRATION [5]: 38.23 G/DL
MEAN CORPUSCULAR VOLUME [5]: 61.93 fL
MONOCYTE [5]: 1.67%
NUCLEATED RED BLOOD CELLS [5]: 0 /100WBC
PLATELET COUNT [5]: 1204 x10E3/uL
ALANINE AMINOTRANSFERASE [5]: 147 u/L
ALBUMIN [5]: 3.83 G/DL
ALKALINE PHOSPHATASE [5]: 433.33 u/L
ASPARTATE AMINOTRANSFERASE [5]: 253.67 u/L
BLOOD UREA NITROGEN [5]: 12.33 mg/dL
CARBON DIOXIDE [5]: 35.67 mmol/L
CHOLESTEROL [5]: 135.33 mg/dL
CREATINE PHOSPHOKINASE [5]: 315.33 u/L
CREATININE [5]: 0.15 mg/dL
GLUCOSE [5]: 110.33 mg/dL
LACTATE DEHYDROGENASE [5]: 180 u/L
POTASSIUM [5]: 4.83 MEQ/L
SODIUM [5]: 143.43 MEQ/L
TOTAL BILIRUBIN [5]: 0.27 mg/dL
TOTAL PROTEIN [5]: 5.7 G/DL
URIC ACID [5]: 0.7 mg/dL
ABSOLUTE BASOPHIL [6]: 0 CELLS/uL
ABSOLUTE EOSINOPHIL [6]: 92.67 CELLS/uL
ABSOLUTE LYMPHOCYTE [6]: 7992.67 CELLS/uL
ABSOLUTE SEGMENTED NEUTROPHIL [6]: 4483.67 CELLS/uL
BASOPHIL [6]: 0%
EOSINOPHIL [6]: 0.67%
ERYTHROCYTE COUNT [6]: 7.13 x10E6/uL
HEMATOCRIT [6]: 41.5%
HEMOGLOBIN [6]: 15.4 G/DL
LYMPHOCYTE [6]: 64.67%
MEAN CORPUSCULAR HEMOGLOBIN [6]: 21.77 pg
MEAN CORPUSCULAR HEMOGLOBIN CONCENTRATION [6]: 37.27 G/DL
MEAN CORPUSCULAR VOLUME [6]: 58.43 fL
MONOCYTE [6]: 1.67%
NUCLEATED RED BLOOD CELLS [6]: 0 /100WBC
PLATELET COUNT [6]: 1163.67 x10E3/uL
ALANINE AMINOTRANSFERASE [6]: 380 u/L
ALBUMIN [6]: 3.27 G/DL
ALKALINE PHOSPHATASE [6]: 444.33 u/L
ASPARTATE AMINOTRANSFERASE [6]: 620.33 u/L
BLOOD UREA NITROGEN [6]: 39.33 mg/dL
CARBON DIOXIDE [6]: 27 mmol/L
CHOLESTEROL [6]: 132.33 mg/dL
CREATINE PHOSPHOKINASE [6]: 3005.33 u/L
CREATININE [6]: 0.42 mg/dL
GLUCOSE [6]: 124 mg/dL
LACTATE DEHYDROGENASE [6]: 673.67 u/L
POTASSIUM [6]: 6.23 MEQ/L
SODIUM [6]: 138.53 MEQ/L
TOTAL BILIRUBIN [6]: 0.4 mg/dL
TOTAL PROTEIN [6]: 5.33 G/DL
URIC ACID [6]: 1.5 mg/dL
